Measured values as given in the NIST ThermoML archive (doi:10.1021/je0601356).
Where “and” joins values, the source holds several entries; their conditions need not be identical. Equal values may be shown once.

Conditions: Liquid, Vibrating wire viscometry

CC(F)(F)F [1,1,1-trifluoroethane]
Conditions	viscosity
273.21 K, 4960 kPa	0.1724 mPa·s
273.21 K, 5010 kPa	0.172 mPa·s
273.21 K, 5030 kPa	0.1723 mPa·s
273.21 K, 7780 kPa	0.1804 mPa·s
273.21 K, 7800 kPa	0.1805 mPa·s
273.21 K, 7810 kPa	0.1806 mPa·s
273.21 K, 7900 kPa	0.1803 mPa·s
273.21 K, 7960 kPa	0.1805 mPa·s
273.21 K, 9530 kPa	0.1854 mPa·s
273.21 K, 9540 kPa	0.1852 mPa·s
273.21 K, 9580 kPa	0.1856 mPa·s
273.21 K, 9610 kPa	0.1851 mPa·s
273.21 K, 9770 kPa	0.185 mPa·s
273.21 K, 9880 kPa	0.1853 mPa·s
283.22 K, 1240 kPa	0.1416 mPa·s
283.22 K, 1260 kPa	0.1418 mPa·s
283.22 K, 1470 kPa	0.1416 mPa·s
283.22 K, 1510 kPa	0.1424 mPa·s
283.22 K, 1530 kPa	0.1424 mPa·s
283.22 K, 1570 kPa	0.1429 mPa·s
283.22 K, 1900 kPa	0.1433 mPa·s
283.22 K, 1930 kPa	0.1433 mPa·s
283.22 K, 1950 kPa	0.1432 mPa·s
283.22 K, 1970 kPa	0.144 mPa·s
283.22 K, 2000 kPa	0.1435 mPa·s
283.22 K, 2050 kPa	0.1442 mPa·s
283.22 K, 3700 kPa	0.1495 mPa·s
283.22 K, 3720 kPa	0.1496 mPa·s
283.22 K, 3850 kPa	0.1497 mPa·s
283.22 K, 5130 kPa	0.1537 mPa·s
283.22 K, 5220 kPa	0.1543 mPa·s
283.22 K, 5260 kPa	0.1536 mPa·s and 0.154 mPa·s
283.22 K, 7400 kPa	0.1615 mPa·s
283.22 K, 7500 kPa	0.161 mPa·s
283.22 K, 7540 kPa	0.1607 mPa·s
283.22 K, 9720 kPa	0.1679 mPa·s
283.22 K, 9780 kPa	0.1678 mPa·s
283.22 K, 9940 kPa	0.168 mPa·s
283.22 K, 10050 kPa	0.1678 mPa·s
293.17 K, 1370 kPa	0.1253 mPa·s
293.17 K, 1390 kPa	0.1255 mPa·s
293.17 K, 1400 kPa	0.1252 mPa·s
293.17 K, 1420 kPa	0.1256 mPa·s
293.17 K, 1430 kPa	0.1258 mPa·s and 0.1256 mPa·s
293.17 K, 1440 kPa	0.1258 mPa·s
293.17 K, 1850 kPa	0.1268 mPa·s
293.17 K, 1860 kPa	0.1266 mPa·s
293.17 K, 1890 kPa	0.1271 mPa·s
293.17 K, 1920 kPa	0.1267 mPa·s
293.17 K, 1940 kPa	0.127 mPa·s
293.17 K, 3820 kPa	0.1333 mPa·s
293.17 K, 3830 kPa	0.1336 mPa·s
293.17 K, 3850 kPa	0.1337 mPa·s
293.17 K, 3860 kPa	0.1335 mPa·s
293.17 K, 3870 kPa	0.1333 mPa·s
293.17 K, 3890 kPa	0.1335 mPa·s and 0.1336 mPa·s
293.17 K, 4900 kPa	0.1378 mPa·s
293.17 K, 4920 kPa	0.1377 mPa·s
293.17 K, 4960 kPa	0.138 mPa·s
293.17 K, 4970 kPa	0.138 mPa·s
293.17 K, 5010 kPa	0.1381 mPa·s
293.17 K, 7450 kPa	0.1448 mPa·s
293.17 K, 7490 kPa	0.1446 mPa·s
293.17 K, 7520 kPa	0.145 mPa·s
293.17 K, 7550 kPa	0.1449 mPa·s
293.17 K, 7560 kPa	0.1449 mPa·s
293.17 K, 7590 kPa	0.1451 mPa·s
293.17 K, 7620 kPa	0.1453 mPa·s
293.17 K, 9740 kPa	0.1507 mPa·s
293.17 K, 9770 kPa	0.1506 mPa·s
293.17 K, 9820 kPa	0.1507 mPa·s
293.17 K, 9880 kPa	0.151 mPa·s
293.17 K, 9970 kPa	0.1511 mPa·s
293.17 K, 10070 kPa	0.1517 mPa·s
